Data as given in patent US20220281848A1, “PYRAZOLE-SUBSTITUTED PYRROLIDINONES AS HERBICIDES” (FMC Corporation, priority 2019, published 2022).

Tested on: plants
Assay: Test D pre-emergence, other plants of Tables D1 and D3
Format: in vivo
Settings: preemergent, 20 DAA
Protocol: A formulation containing 50 g/L of the test chemical was prepared by dissolving the active ingredient in a mixture of organic solvents and emulsifier, details of which are provided in the table. This formulation was then mixed with a small, variable amount of acetone to aid dissolution, before addition of a 0.2% v/v aqueous solution of an adjuvant, as the aqueous diluent, to form an aqueous spray solution which contains a predetermined concentration of the active ingredient.
This aqueous spray solution was then sprayed onto plants including maize and wheat that had been seed treated with a herbicide safener, after one day's cultivation (for pre-emergence) or after about 12 days' cultivation (for post-emergence). The plants were grown from seeds sown in standard soil, placed in a glasshouse under controlled conditions (at 24/18° C. or 20/16° C., day/night; 16 h light; 65% humidity). After spray application the plants were then grown in a glasshouse under the same conditions and watered twice daily. After 15 d for post-emergence and 20 DAA for pre-emergence the test was evaluated (100=total damage to plant; 0=no damage to plant).

With CN1CC(c2cc(C(F)(F)F)n(C)n2)C(C(=O)Nc2ccccc2F)C1=O (racemic) [Compound 9] the “damage to plant (100=total damage to plant; 0=no damage to plant), ABUTH” value (rate 15) was 0, the “damage to plant (100=total damage to plant; 0=no damage to plant), ABUTH” value (rate 30) was 0 and the “damage to plant (100=total damage to plant; 0=no damage to plant), ABUTH” value (rate 60) was 0. For the same compound, the “damage to plant (100=total damage to plant; 0=no damage to plant), ABUTH” value (rate 130) was 0, the “damage to plant (100=total damage to plant; 0=no damage to plant), ABUTH” value (rate 250) was 10 and the “damage to plant (100=total damage to plant; 0=no damage to plant), ABUTH” value (rate 500) was 10. For the same compound, the “damage to plant (100=total damage to plant; 0=no damage to plant), AMARE” value (rate 15) was 0, the “damage to plant (100=total damage to plant; 0=no damage to plant), AMARE” value (rate 30) was 0 and the “damage to plant (100=total damage to plant; 0=no damage to plant), AMARE” value (rate 500) was 0. For the same compound, the “damage to plant (100=total damage to plant; 0=no damage to plant), BIDPI” value (rate 15) was 0, the “damage to plant (100=total damage to plant; 0=no damage to plant), BIDPI” value (rate 30) was 0 and the “damage to plant (100=total damage to plant; 0=no damage to plant), BIDPI” value (rate 60) was 0. For the same compound, the “damage to plant (100=total damage to plant; 0=no damage to plant), BIDPI” value (rate 130) was 0, the “damage to plant (100=total damage to plant; 0=no damage to plant), BIDPI” value (rate 250) was 0 and the “damage to plant (100=total damage to plant; 0=no damage to plant), BIDPI” value (rate 500) was 0. For the same compound, the “damage to plant (100=total damage to plant; 0=no damage to plant), BRAPL” value (rate 15) was 0, the “damage to plant (100=total damage to plant; 0=no damage to plant), BRAPL” value (rate 30) was 10 and the “damage to plant (100=total damage to plant; 0=no damage to plant), BRAPL” value (rate 60) was 30. The “damage to plant (100=total damage to plant; 0=no damage to plant), BRAPL” value (rate 130) was 90, the “damage to plant (100=total damage to plant; 0=no damage to plant), BRAPL” value (rate 250) was 100 and the “damage to plant (100=total damage to plant; 0=no damage to plant), BRAPL” value (rate 500) was 100. The “damage to plant (100=total damage to plant; 0=no damage to plant), CYPES” value (rate 15) was 0, the “damage to plant (100=total damage to plant; 0=no damage to plant), CYPES” value (rate 30) was 0 and the “damage to plant (100=total damage to plant; 0=no damage to plant), CYPES” value (rate 60) was 0. For the same compound, the “damage to plant (100=total damage to plant; 0=no damage to plant), CYPES” value (rate 130) was 0, the “damage to plant (100=total damage to plant; 0=no damage to plant), CYPES” value (rate 250) was 0 and the “damage to plant (100=total damage to plant; 0=no damage to plant), CYPES” value (rate 500) was 0. For the same compound, the “damage to plant (100=total damage to plant; 0=no damage to plant), DIGSA” value (rate 15) was 0, the “damage to plant (100=total damage to plant; 0=no damage to plant), DIGSA” value (rate 30) was 80 and the “damage to plant (100=total damage to plant; 0=no damage to plant), DIGSA” value (rate 60) was 80. The “damage to plant (100=total damage to plant; 0=no damage to plant), DIGSA” value (rate 130) was 100, the “damage to plant (100=total damage to plant; 0=no damage to plant), DIGSA” value (rate 250) was 90 and the “damage to plant (100=total damage to plant; 0=no damage to plant), DIGSA” value (rate 500) was 100. For the same compound, the “damage to plant (100=total damage to plant; 0=no damage to plant), ECHCG” value (rate 15) was 0, the “damage to plant (100=total damage to plant; 0=no damage to plant), ECHCG” value (rate 30) was 20 and the “damage to plant (100=total damage to plant; 0=no damage to plant), ECHCG” value (rate 60) was 80. The “damage to plant (100=total damage to plant; 0=no damage to plant), ECHCG” value (rate 130) was 90, the “damage to plant (100=total damage to plant; 0=no damage to plant), ECHCG” value (rate 250) was 90 and the “damage to plant (100=total damage to plant; 0=no damage to plant), ECHCG” value (rate 500) was 90. The “damage to plant (100=total damage to plant; 0=no damage to plant), ELEIN” value (rate 15) was 0, the “damage to plant (100=total damage to plant; 0=no damage to plant), ELEIN” value (rate 30) was 0 and the “damage to plant (100=total damage to plant; 0=no damage to plant), ELEIN” value (rate 60) was 0. The “damage to plant (100=total damage to plant; 0=no damage to plant), ELEIN” value (rate 130) was 0, the “damage to plant (100=total damage to plant; 0=no damage to plant), ELEIN” value (rate 250) was 0 and the “damage to plant (100=total damage to plant; 0=no damage to plant), ELEIN” value (rate 500) was 0. The “damage to plant (100=total damage to plant; 0=no damage to plant), EPHHL” value (rate 15) was 0, the “damage to plant (100=total damage to plant; 0=no damage to plant), EPHHL” value (rate 30) was 0 and the “damage to plant (100=total damage to plant; 0=no damage to plant), EPHHL” value (rate 60) was 0. The “damage to plant (100=total damage to plant; 0=no damage to plant), EPHHL” value (rate 130) was 0, the “damage to plant (100=total damage to plant; 0=no damage to plant), EPHHL” value (rate 500) was 10 and the “damage to plant (100=total damage to plant; 0=no damage to plant), GLXMA” value (rate 15) was 0. For the same compound, the “damage to plant (100=total damage to plant; 0=no damage to plant), GLXMA” value (rate 30) was 0, the “damage to plant (100=total damage to plant; 0=no damage to plant), GLXMA” value (rate 60) was 0 and the “damage to plant (100=total damage to plant; 0=no damage to plant), GLXMA” value (rate 130) was 0. The “damage to plant (100=total damage to plant; 0=no damage to plant), GLXMA” value (rate 250) was 0, the “damage to plant (100=total damage to plant; 0=no damage to plant), GLXMA” value (rate 500) was 0 and the “damage to plant (100=total damage to plant; 0=no damage to plant), IPOHE” value (rate 15) was 0. The “damage to plant (100=total damage to plant; 0=no damage to plant), IPOHE” value (rate 30) was 0, the “damage to plant (100=total damage to plant; 0=no damage to plant), IPOHE” value (rate 60) was 0 and the “damage to plant (100=total damage to plant; 0=no damage to plant), IPOHE” value (rate 130) was 0. For the same compound, the “damage to plant (100=total damage to plant; 0=no damage to plant), IPOHE” value (rate 250) was 0, the “damage to plant (100=total damage to plant; 0=no damage to plant), IPOHE” value (rate 500) was 0 and the “damage to plant (100=total damage to plant; 0=no damage to plant), ORYSA” value (rate 15) was 0. For the same compound, the “damage to plant (100=total damage to plant; 0=no damage to plant), ORYSA” value (rate 30) was 0, the “damage to plant (100=total damage to plant; 0=no damage to plant), ORYSA” value (rate 60) was 0 and the “damage to plant (100=total damage to plant; 0=no damage to plant), ORYSA” value (rate 130) was 0. The “damage to plant (100=total damage to plant; 0=no damage to plant), ORYSA” value (rate 250) was 0, the “damage to plant (100=total damage to plant; 0=no damage to plant), ORYSA” value (rate 500) was 0 and the “damage to plant (100=total damage to plant; 0=no damage to plant), PANMI” value (rate 15) was 0. For the same compound, the “damage to plant (100=total damage to plant; 0=no damage to plant), PANMI” value (rate 30) was 0, the “damage to plant (100=total damage to plant; 0=no damage to plant), PANMI” value (rate 60) was 0 and the “damage to plant (100=total damage to plant; 0=no damage to plant), PANMI” value (rate 130) was 0. For the same compound, the “damage to plant (100=total damage to plant; 0=no damage to plant), PANMI” value (rate 250) was 0, the “damage to plant (100=total damage to plant; 0=no damage to plant), PANMI” value (rate 500) was 0 and the “damage to plant (100=total damage to plant; 0=no damage to plant), SETFA” value (rate 15) was 0. For the same compound, the “damage to plant (100=total damage to plant; 0=no damage to plant), SETFA” value (rate 30) was 0, the “damage to plant (100=total damage to plant; 0=no damage to plant), SETFA” value (rate 60) was 0 and the “damage to plant (100=total damage to plant; 0=no damage to plant), SETFA” value (rate 130) was 50. The “damage to plant (100=total damage to plant; 0=no damage to plant), SETFA” value (rate 250) was 70, the “damage to plant (100=total damage to plant; 0=no damage to plant), SETFA” value (rate 500) was 90 and the “damage to plant (100=total damage to plant; 0=no damage to plant), SIDSP” value (rate 15) was 0. The “damage to plant (100=total damage to plant; 0=no damage to plant), SIDSP” value (rate 30) was 0, the “damage to plant (100=total damage to plant; 0=no damage to plant), SIDSP” value (rate 60) was 0 and the “damage to plant (100=total damage to plant; 0=no damage to plant), SIDSP” value (rate 130) was 0. The “damage to plant (100=total damage to plant; 0=no damage to plant), SIDSP” value (rate 250) was 0, the “damage to plant (100=total damage to plant; 0=no damage to plant), SIDSP” value (rate 500) was 0 and the “damage to plant (100=total damage to plant; 0=no damage to plant), SORVU” value (rate 15) was 0. For the same compound, the “damage to plant (100=total damage to plant; 0=no damage to plant), SORVU” value (rate 30) was 0, the “damage to plant (100=total damage to plant; 0=no damage to plant), SORVU” value (rate 60) was 0 and the “damage to plant (100=total damage to plant; 0=no damage to plant), SORVU” value (rate 130) was 0. For the same compound, the “damage to plant (100=total damage to plant; 0=no damage to plant), SORVU” value (rate 250) was 0.
